Results taken from US20260167706A1, “ANTI-ADRENOMEDULLIN (ADM) ANTIBODY OR ANTI-ADM ANTIBODY FRAGMENT OR ANTI-ADM NON-IG SCAFFOLD FOR USE IN THERAPY OR PREVENTION OF SHOCK” (ADRENOMED AG, priority 2022, published 2026).
Like-named read-outs stand apart in the source and are kept apart here.

What was measured:
[1] = tested on: patients with septic shock and elevated adrenomedullin; test: AdrenOSS-2 phase II clinical trial, mortality versus placebo; type: in vivo, human
[2] = tested on: subjects of phase I study; details: cited from earlier work
[3] = tested on: mice with CLP-induced sepsis; details: pre-treatment, cited from earlier work
[4] = tested on: patients with septic shock and elevated adrenomedullin; test: AdrenOSS-2 phase II clinical trial, mortality versus placebo; type: in vivo, human; details: for all-cause mortality compared to the placebo arm: 28 days
Excerpt: AdrenOSS-2 is a double-blind, placebo-controlled, randomized, multicenter, proof of concept and dose-finding phase II clinical trial to investigate the safety, tolerability and efficacy of the N-terminal ADM antibody named Adrecizumab in patients with septic shock and elevated adrenomedullin (Geven et al. BMJ Open 2019; 9:e024475). In total, 301 patients with septic shock and bio-ADM concentration >70 pg/mL were randomized (2:1:1) to treatment with a single intravenous infusion over approximately 1 hour with either placebo (n=152), adrecizumab 2 ng/kg (n=72) or adrecizumab 4 ng/kg (n=77). All-cause mortality within 28 (90) days after inclusion was 25.8% (34.8%). Mean age was 68.4 years and 61% were male. For the per protocol analysis, n=294 patients remained eligible, and 14-day all-cause mortality rate was 18.5%.
To validate the findings from example 10 and for proof of concept, the different lower thresholds for DPP3 at baseline (day 1) were assessed for efficacy of the anti-ADM antibody (Adrecizumab) therapy in the septic shock population with high bio-ADM from the AdrenOSS-2 study cohort and patients with a DPP3 plasma value above the different lower thresholds were excluded from the analyses. Efficacy of the anti-bio-ADM antibody therapy was specifically assessed to what concerns the mortality endpoint in the placebo and treated arms.
The DPP3 plasma levels in septic shock with high bio-ADM (above […]) patients (n=298) at baseline and in the following 144 h were statistically analysed with the aim of determining a DPP3 threshold at baseline to assess anti-ADM antibody therapy efficacy. Patients above the respective DPP3 plasma thresholds were excluded from the analyses. Different DPP3 plasma concentration thresholds have been applied for 28-day all-cause mortality evaluation using Kaplan-Meier plots comparing anti-ADM antibody therapy vs. placebo. The log-rank test was chosen for showing differences in mortality rates among treatment groups. Hazard ratios (HR) were calculated for each DPP3 plasma concentration threshold to estimate the reduction in mortality risk imposed by anti-ADM antibody therapy relative to placebo.
The different thresholds for DPP3 levels at baseline (day 1) were further used for subgroup analyses for 28-day all-cause mortality evaluation using Kaplan-Meier plots in the treated and placebo arms comparing anti-ADM antibody therapy (Adrecizumab) vs. placebo. The DPP3 plasma concentration thresholds at baseline used were 50 ng/ml and 30 ng/ml.

endotoxemic rats = details: pre-treatment; cited from earlier work

Substance: Adrecizumab: humanized N-terminal anti-ADM antibody; heavy chain SEQ ID NO: 32, light chain SEQ ID NO: 33
- HR for 14-day mortality ([1]; elevated DPP3 above 50 ng/mL): 1.69
- HR for 14-day mortality ([1]; pre-dose DPP3 <40): 0.385
- HR for 14-day mortality ([1]; pre-dose DPP3 <50 (ng/mL)): 0.426
- HR for 14-day mortality ([1]; pre-dose DPP3 <60): 0.449
- HR for 14-day mortality ([1]; pre-dose DPP3 <70): 0.546
- HR for 14-day mortality ([1]; pre-dose DPP3 <90): 0.606
- serious adverse events [2]: no serious adverse events were observed
- renal vascular leakage ([3]; mice with CLP-induced sepsis): attenuated
- 7-day survival ([3]; repeated dose administration (control 0%)): 40%
- 7-day survival ([3]; single dose administration (control 10%)): 50%
- all-cause mortality compared to the placebo arm ([4]; DPP3 below 30 ng/ml (n=195)): significantly reduced
- all-cause mortality compared to the placebo arm ([4]; DPP3 below 50 ng/ml): lower than the placebo arm
- all-cause mortality compared to the placebo arm ([4]; DPP3 below 50 ng/ml at baseline and continuously low during the next 144h): significantly lower
- HR, 28-day all-cause mortality relative to placebo ([4]; DPP3 threshold at baseline 22 ng/ml): 0.258
- HR, 28-day all-cause mortality relative to placebo ([4]; DPP3 threshold at baseline 30 ng/ml): 0.309
- HR, 28-day all-cause mortality relative to placebo ([4]; DPP3 threshold at baseline 40 ng/ml): 0.568
- HR, 28-day all-cause mortality relative to placebo ([4]; DPP3 threshold at baseline 50 ng/ml): 0.606
- renal vascular leakage (endotoxemic rats): attenuated
